Earlier results as cited in patent US20090162444A1, “RALOXIFENE COMPOSITION” (priority 2007, published 2009).
Where a name gives a salt, the structure may show the parent alone.

How the values were obtained:
[1] = oral administration
[2] = not given; remark: listed apart in the source

absolute bioavailability [1]	solubility in water	solubility in gastric and intestinal fluid [2]	SMILES
about 2%			O=C(c1ccc(OCCN2CCCCC2)cc1)c1c(-c2ccc(O)cc2)sc2cc(O)ccc12 [Raloxifene, (6-hydroxy-2-(4-hydroxy-phenyl)benzo[b]thien-3-yl)-(4-(2-(1-piperidinyl)ethoxy)phenyl)methanone]
	627 µg/mL	very slightly soluble	O=C(c1ccc(OCCN2CCCCC2)cc1)c1c(-c2ccc(O)cc2)sc2cc(O)ccc12 [Raloxifene hydrochloride, raloxifene hydrochloride]
